{
  "source": "paper PMC5253651",
  "about": "(Nature Communications, 2017)",
  "key": {"human FPPS [1]": {"biological_target": "T1, human FPPS (Homo sapiens, UniProt P14324)", "T1 sequence (P14324 1-353 isoform P14324-2)": "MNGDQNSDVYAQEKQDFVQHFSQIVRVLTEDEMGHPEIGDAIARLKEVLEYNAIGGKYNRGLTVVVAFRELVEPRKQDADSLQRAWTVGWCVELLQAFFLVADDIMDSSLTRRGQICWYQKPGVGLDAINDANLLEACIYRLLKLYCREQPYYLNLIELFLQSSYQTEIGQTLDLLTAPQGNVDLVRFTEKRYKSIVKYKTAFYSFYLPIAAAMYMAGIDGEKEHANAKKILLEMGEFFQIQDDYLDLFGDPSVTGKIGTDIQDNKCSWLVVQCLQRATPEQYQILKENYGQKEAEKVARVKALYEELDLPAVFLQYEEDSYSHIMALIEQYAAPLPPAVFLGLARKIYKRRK", "test": "Isothermal titration calorimetry (ITC) binding assay", "design": "His6 (N); made in house; host or cells: Escherichia coli BL21 (DE3)", "method": "Ligand (DMAPP, GPP and FPP) and MgCl2 solutions were prepared in the used dialysate. Each titration experiment consisted of a first 1 μl injection followed by 18 2 μl injections of a ligand solution into the 204.1 μl calorimetric cell loaded with the enzyme solution. […] When added, the concentration of MgCl2 was 5 mM. Heats of dilution were measured by injecting the ligands into the buffer alone and subtracted from the corresponding titration data. The data were fitted to the single-site-binding model implemented in the Origin software package provided with the ITC instrument."}, "human FPPS [2]": {"biological_target": "T1, human FPPS", "experimental": "Reaction calorimetry was also carried out at 30 °C with a MicroCal iTC200 system. The enzyme and substrates were prepared in the reaction buffer (50 mM HEPES (pH 7.5), 150 mM NaCl, 2 mM MgCl2, 2 mM β-mercaptoethanol and 5% glycerol) in the same way described for the binding experiments. […] When added, FPP was preincubated together with the enzyme. The concentration of the enzyme in the cell was 400–500 nM, and those of the substrates in the syringe were 0.4–4 mM. Heats of dilution were measured and subtracted from the actual reaction data. […] Briefly, The molar reaction enthalpy (ΔH) was determined first based on the relationship:\nin which Q is the total heat associated with producing n moles of product, [S0] is the starting concentration of the limiting substrate and V is the volume of the calorimetric cell. Q was calculated by integrating the thermal power (dQ/dt) measured over the complete course of reaction, whereas [S0] and V were known. Once ΔH was determined, the substrate concentration ([S]) could be determined as a function of time as described in the equation:\nThe rate of reaction could be calculated from dQ/dt for any given time point:\nFor kinetic measurements, the temporal experimental heat flow must be monitored accurately. […] Km and Vmax values were determined by fitting the rate data to the following equation[29]:"}, "FPPS": {"test_system": "FPPS", "conditions": "cited from earlier work"}, "N-BP-bound FPPS complex": {"biological_target": "N-BP-bound FPPS complex", "conditions": "binding of IPP to an N-BP-bound FPPS complex; cited from earlier work"}, "[3]": {"conditions": "ITC, 30 °C, titrated in absence of Mg2+, triplicate, read-out: Kd"}, "[4]": {"conditions": "ITC, 30 °C, titrated in presence of Mg2+ (5 mM MgCl2), triplicate, read-out: Kd"}, "[5]": {"conditions": "ITC, 30 °C, titrated in absence of Mg2+, triplicate"}, "[6]": {"conditions": "ITC, 30 °C, titrated in presence of Mg2+ (5 mM MgCl2), triplicate"}},
  "note": "Like-named read-outs stand apart in the source and are kept apart here. Marks after values point to notes of the source that are not given here.",
  "data": [
    {"smiles": "CC(C)=CCC/C(C)=C/CC/C(C)=C/CO[P@@](=O)(O)OP(=O)(O)O", "note": "(stereo in doubt) [FPP, farnesyl pyrophosphate]", "values": [
      {"measurement": "Kd", "setting": "human FPPS [1]; [3]", "value": "5.3 ± 0.4", "unit": "µM"},
      {"measurement": "Kd", "setting": "human FPPS [1]; [4]", "value": "6 ± 0.6", "unit": "µM"},
      {"measurement": "Kd", "setting": "human FPPS [1]; summary of ITC values in absence and presence of Mg2+, read-out: Kd for binding to the allosteric pocket", "value": "5 to 6", "unit": "µM"}
    ]},
    {"smiles": "CC(C)=CCOP(=O)(O)OP(=O)(O)O", "note": "[DMAPP, dimethylallyl pyrophosphate]", "values": [
      {"measurement": "TΔS", "setting": "human FPPS [1]; [5]", "value": 1.6, "unit": "kcal/mol"},
      {"measurement": "n (molar binding ratio)", "setting": "human FPPS [1]; [5]", "value": "1 ^†"},
      {"measurement": "ΔH", "setting": "human FPPS [1]; [5]", "value": "-4.5 ± 0.2", "unit": "kcal/mol"},
      {"measurement": "TΔS", "setting": "human FPPS [1]; [6]", "value": 2.1, "unit": "kcal/mol"},
      {"measurement": "n (molar binding ratio)", "setting": "human FPPS [1]; [6]", "value": "0.87±0.01"},
      {"measurement": "ΔH", "setting": "human FPPS [1]; [6]", "value": "-5.8 ± 0.1", "unit": "kcal/mol"},
      {"measurement": "Kd", "setting": "human FPPS [1]; Kd, ITC, 30 °C, titrated in absence of Mg2+, triplicate", "value": "43.7 ± 4.3", "unit": "µM"},
      {"measurement": "Kd", "setting": "human FPPS [1]; Kd, ITC, 30 °C, titrated in presence of Mg2+ (5 mM MgCl2), triplicate", "value": "2.2 ± 0.2", "unit": "µM"}
    ]},
    {"smiles": "CC(C)=CCC/C(C)=C/CC/C(C)=C/COP(=O)(O)OP(=O)(O)O", "note": "[FPP, farnesyl pyrophosphate]", "values": [
      {"measurement": "effect on FPPS reaction rate curve (product inhibition)", "setting": "human FPPS [2]; same excess experiment, reaction with an initial amount of FPP preincubated with enzyme", "value": "depressed rate curve"},
      {"measurement": "TΔS", "setting": "human FPPS [1]; [5]", "value": 1.8, "unit": "kcal/mol"},
      {"measurement": "n (molar binding ratio)", "setting": "human FPPS [1]; [5]", "value": "1.12±0.01"},
      {"measurement": "ΔH", "setting": "human FPPS [1]; [5]", "value": "-5.5 ± 0.1", "unit": "kcal/mol"},
      {"measurement": "TΔS", "setting": "human FPPS [1]; [6]", "value": 1.7, "unit": "kcal/mol"},
      {"measurement": "n (molar binding ratio)", "setting": "human FPPS [1]; [6]", "value": "1.17±0.02"},
      {"measurement": "ΔH", "setting": "human FPPS [1]; [6]", "value": "-5.6 ± 0.1", "unit": "kcal/mol"}
    ]},
    {"smiles": "CC(C)=CCC/C(C)=C/COP(=O)(O)OP(=O)(O)O", "note": "[GPP, geranyl pyrophosphate]", "values": [
      {"measurement": "Km", "setting": "FPPS; previously reported Km value for GPP", "value": 2070, "unit": "nM"},
      {"measurement": "TΔS", "setting": "human FPPS [1]; [5]", "value": 1.8, "unit": "kcal/mol"},
      {"measurement": "n (molar binding ratio)", "setting": "human FPPS [1]; [5]", "value": "0.80±0.03"},
      {"measurement": "ΔH", "setting": "human FPPS [1]; [5]", "value": "-5.3 ± 0.2", "unit": "kcal/mol"},
      {"measurement": "Kd", "setting": "human FPPS [1]; [3]", "value": "7.6 ± 0.9", "unit": "µM"},
      {"measurement": "TΔS", "setting": "human FPPS [1]; [6]", "value": 0.2, "unit": "kcal/mol"},
      {"measurement": "n (molar binding ratio)", "setting": "human FPPS [1]; [6]", "value": "0.79±0.01"},
      {"measurement": "ΔH", "setting": "human FPPS [1]; [6]", "value": "-7.7 ± 0.2", "unit": "kcal/mol"},
      {"measurement": "Kd", "setting": "human FPPS [1]; [4]", "value": "2.1 ± 0.3", "unit": "µM"}
    ]},
    {"smiles": "C=C(C)CCO[P@@](=O)(O)OP(=O)(O)O", "note": "[IPP, isopentenyl pyrophosphate]", "values": [
      {"measurement": "effect on enzyme activity (substrate inhibition)", "setting": "human FPPS [2]; experiment carried out in excess of IPP", "value": "significantly reduced enzyme activity"},
      {"measurement": "Km", "setting": "FPPS; literature value for IPP", "value": 1800, "unit": "nM"},
      {"measurement": "Kd", "setting": "N-BP-bound FPPS complex", "value": 900, "unit": "nM"}
    ]},
    {"smiles": "O=P(O)(O)OP(=O)(O)O", "note": "[PPi]", "values": [
      {"measurement": "binding affinity by ITC (result in words)", "setting": "human FPPS [1]; both in the presence and absence of Mg2+", "value": "did not demonstrate an apparent binding event"}
    ]}
  ]
}
